These are literature values, as cited in patent CN102406622A, “一种托伐普坦的固体制剂” (Zhejiang Huahai Pharmaceutical Co Ltd, priority 2011, dated 2012).

The conditions of the series: low solubility, low permeability.

`Cc1ccccc1C(=O)Nc1ccc(C(=O)N2CCC[C@@H](O)c3cc(Cl)ccc32)c(C)c1` [托伐普坦, N-[4-[(5R)-7-氯-5-羟基-2,3,4,5-四氢-1-苯并氮杂卓-1-甲酰基]-3-甲基苯基]-2-甲基苯甲酰胺]: the BCS class result was “IV类药”.
